Assay results from patent publication US6087376A (priority 1998, dated 2000).

Target: T1, plasma membrane DA transporter (rat striatal synaptosomes) (Rattus norvegicus, UniProt P23977)
T1 construct: from tissue; host or cells: rat striatum, synaptosomes
Test: [3H]DA uptake assay, striatal synaptosomal preparation
Format: biochemical
Conditions: read-out: IC50, inhibition of [3H]DA uptake into synaptosomes
Procedure: The homogenate was centrifuged at 2,000×g for 10 min at 4° C. […] The final protein concentration was 400 μg/mL. The assay was performed in duplicate in a total volume of 500 μL. […] The incubation continued for 10 min at 34° C. The reaction was terminated by the addition of 3 mL cold assay buffer (without 1 mM catechol). Samples were rapidly filtered through a Whatman GF/B filter using a Brandel cell harvester (model MP-43 RS, Biochemical Research and Development Laboratories, Inc., Gaithersburg, Md.) and the filter was subsequently washed 3 times with 4 mL of cold assay buffer containing 1 mM catechol. Filters were previously soaked for 2 hrs in the cold assay buffer containing 1 mM catechol. […] Filters were placed into scintillation vials, 10 mL of scintillation cocktail was added and radioactivity was determined by scintillation spectrometry.
Inhibition of synaptosomal and vesicular [^3 H]DA uptake were analyzed by repeated-measures, one-way ANOVA, and by an iterative nonlinear least-squares curve-fitting program (GraphPAD-PRIZM; GraphPAD, San Diego, Calif.) to obtain IC50 values. Dunnett's post hoc test was used to compare treatment means to a single control mean. Also, Duncan's New Multiple Range Test or Fisher's LSD post hoc analysis were used to compare pairs of treatment means. […]

T1 sequence (P23977 whole entry): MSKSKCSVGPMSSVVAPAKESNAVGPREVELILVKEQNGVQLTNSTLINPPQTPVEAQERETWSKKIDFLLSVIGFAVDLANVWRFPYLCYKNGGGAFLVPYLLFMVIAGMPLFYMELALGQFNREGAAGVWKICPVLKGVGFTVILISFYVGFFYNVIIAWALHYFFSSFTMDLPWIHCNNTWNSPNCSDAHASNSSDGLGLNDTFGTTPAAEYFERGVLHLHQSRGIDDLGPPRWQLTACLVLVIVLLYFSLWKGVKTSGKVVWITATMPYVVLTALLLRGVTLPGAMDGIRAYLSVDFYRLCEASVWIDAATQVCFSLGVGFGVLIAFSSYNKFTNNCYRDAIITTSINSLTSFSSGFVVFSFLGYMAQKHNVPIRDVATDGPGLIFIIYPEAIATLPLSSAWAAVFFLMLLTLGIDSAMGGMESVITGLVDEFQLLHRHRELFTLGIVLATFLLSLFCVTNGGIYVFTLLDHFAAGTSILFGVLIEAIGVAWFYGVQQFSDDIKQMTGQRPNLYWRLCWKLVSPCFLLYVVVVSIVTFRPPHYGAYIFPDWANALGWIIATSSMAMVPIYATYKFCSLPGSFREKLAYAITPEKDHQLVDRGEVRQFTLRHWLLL

Structure (SMILES): CN1[C@@H](CC(=O)c2ccccc2)CCC[C@H]1C[C@H](O)c1ccccc1 [Lobeline, 2-[G-(β-hydroxyphenethyl)-1-methyl-2-piperidyl]-acetophenone]
- IC50: 80 ± 12 µM
